Data as given in US10865211B2 (ENANTA PHARMACEUTICALS, INC, priority 2018, dated 2020).

Legend:
2.2.15 cells = test: Antiviral activity in 2.2.15 cells: reduction of viral product accumulation (qPCR, HBsAg/HBeAg ELISA); type: cell-based, HBV; settings: Hepatitis B virus, 120 h, day 5 post treatment, concentration reducing viral product accumulation in cell lysates or supernatants by 50% relative to no drug controls
Experimental: 2.2.15 cells are passaged upon attaining confluency in DMEM/F12 media in the presence of 10% FBS, Penn/Strep, and 250 ug/mL G418. Novel compounds are 5 fold serially diluted in DMSO and added to 96 well plates containing 35,000 cells/well at a 1:200 dilution so that the final concentration of DMSO is 0.5%. On day 5, post treatment cell lysates and supernatants are harvested for analysis.
Cells are lysed using Agilent Sidestep Lysis buffer, diluted 1:100 and quantified via quantitative real time PCR. Commercially available ELISA kits are used to quantitate the viral proteins HBsAg (Alpco) or HBeAg (US Biological) by following the manufacturer's recommended protocol after diluting samples to match the linear range of their respective assays. Irrespective of readout, compound concentrations that reduce viral product accumulation in the cell lysates or supernatants by 50% relative to no drug controls (EC50) are reported; EC50 ranges are as follows: A<0.1 μM; B 0.1-1 μM; C>1 μM.

[1] = Compound induced cellular toxicity in HepG2 cells (ATPlite); type: cell-based; settings: human, three days, ATPlite 1 Step, concentration reducing total ATP levels by 50% relative to no drug controls
Experimental: At day 3, post seeding cells are treated with ATPlite 1 Step according to the manufacturer's instructions.

Row | SMILES | EC50 (2.2.15 cells) [µM] | CC50 at 3 days [1] [µM]
1 | CC(C)(C)[C@@H]1Cc2c(oc3cc(-c4cnco4)ccc23)-c2cc(=O)c(C(=O)O)cn21 [Example 17, (S)-6-(tert-butyl)-10-(oxazol-5-yl)-2-oxo-6,7-dihydro-2H-benzofuro[2,3-a]quinolizine-3-carboxylic acid] | < 0.1 | > 25
2 | CC(C)(C)[C@@H]1Cc2c(oc3cc(-c4nccs4)ccc23)-c2cc(=O)c(C(=O)O)cn21 [Example 21, (S)-6-(tert-butyl)-2-oxo-10-(thiazol-2-yl)-6,7-dihydro-2H-benzofuro[2,3-a]quinolizine-3-carboxylic acid] | < 0.1 | 10 to 25
3 | CC(C)(C)[C@@H]1Cc2c(oc3cc(C4CC4)ccc23)-c2cc(=O)c(C(=O)O)cn21 [Example 23, (S)-6-(tert-butyl)-10-cyclopropyl-2-oxo-6,7-dihydro-2H-benzofuro[2,3-a]quinolizine-3-carboxylic acid] | < 0.1 | 10 to 25
4 | Cc1ccc2c3c(oc2c1)-c1cc(=O)c(C(=O)O)cn1[C@H](C(C)(C)C)C3 [Example 24, (S)-6-(tert-butyl)-10-methyl-2-oxo-6,7-dihydro-2H-benzofuro[2,3-a]quinolizine-3-carboxylic acid] | < 0.1 | > 25
5 | CCc1ccc2c3c(oc2c1)-c1cc(=O)c(C(=O)O)cn1[C@H](C(C)(C)C)C3 [Example 25, (S)-6-(tert-butyl)-10-ethyl-2-oxo-6,7-dihydro-2H-benzofuro[2,3-a]quinolizine-3-carboxylic acid] | < 0.1 | > 25
6 | CC(C)(C)[C@@H]1Cc2c(oc3c(-c4ccoc4)cccc23)-c2cc(=O)c(C(=O)O)cn21 [Example 26, (S)-6-(tert-butyl)-11-(furan-3-yl)-2-oxo-6,7-dihydro-2H-benzofuro[2,3-a]quinolizine-3-carboxylic acid] | < 0.1 | 10 to 25
7 | CC(C)(C)[C@@H]1Cc2c(oc3c(-c4cnco4)cccc23)-c2cc(=O)c(C(=O)O)cn21 [Example 27, (S)-6-(tert-butyl)-11-(oxazol-5-yl)-2-oxo-6,7-dihydro-2H-benzofuro[2,3-a]quinolizine-3-carboxylic acid] | < 0.1 | 10 to 25
8 | Cn1nccc1-c1cccc2c3c(oc12)-c1cc(=O)c(C(=O)O)cn1[C@H](C(C)(C)C)C3 [Example 28, (S)-6-(tert-butyl)-11-(1-methyl-1H-pyrazol-5-yl)-2-oxo-6,7-dihydro-2H-benzofuro[2,3-a]quinolizine-3-carboxylic acid] | < 0.1 | > 25
9 | Cn1cc(-c2cccc3c4c(oc23)-c2cc(=O)c(C(=O)O)cn2[C@H](C(C)(C)C)C4)cn1 [Example 29, (S)-6-(tert-butyl)-11-(1-methyl-1H-pyrazol-4-yl)-2-oxo-6,7-dihydro-2H-benzofuro[2,3-a]quinolizine-3-carboxylic acid] | < 0.1 | 10 to 25
10 | Cn1ccc(-c2cccc3c4c(oc23)-c2cc(=O)c(C(=O)O)cn2[C@H](C(C)(C)C)C4)n1 [Example 30, (S)-6-(tert-butyl)-11-(1-methyl-1H-pyrazol-3-yl)-2-oxo-6,7-dihydro-2H-benzofuro[2,3-a]quinolizine-3-carboxylic acid] | < 0.1 | 10 to 25
11 | CC(C)(C)[C@@H]1Cc2c(oc3c(C#N)cccc23)-c2cc(=O)c(C(=O)O)cn21 [Example 31, (S)-6-(tert-butyl)-11-cyano-2-oxo-6,7-dihydro-2H-benzofuro[2,3-a]quinolizine-3-carboxylic acid] | < 0.1 | > 25
12 | CC(C)(C)[C@@H]1Cc2c(oc3c(-c4cn[nH]c4)cccc23)-c2cc(=O)c(C(=O)O)cn21 [Example 32, (S)-6-(tert-butyl)-2-oxo-11-(1H-pyrazol-4-yl)-6,7-dihydro-2H-benzofuro[2,3-a]quinolizine-3-carboxylic acid] | < 0.1 | > 25
13 | CC(C)(C)[C@@H]1Cc2c(oc3c(-c4ccn[nH]4)cccc23)-c2cc(=O)c(C(=O)O)cn21 [Example 33, (S)-6-(tert-butyl)-2-oxo-11-(1H-pyrazol-5-yl)-6,7-dihydro-2H-benzofuro[2,3-a]quinolizine-3-carboxylicacid] | < 0.1 | > 25
14 | CC(C)(C)[C@@H]1Cc2c(oc3c(-c4ccco4)cccc23)-c2cc(=O)c(C(=O)O)cn21 [Example 34, (S)-6-(tert-butyl)-11-(furan-2-yl)-2-oxo-6,7-dihydro-2H-benzofuro[2,3-a]quinolizine-3-carboxylic acid] | < 0.1 | 10 to 25
15 | CC(C)(C)[C@@H]1Cc2c(oc3c(-c4ccsc4)cccc23)-c2cc(=O)c(C(=O)O)cn21 [Example 35, (S)-6-(tert-butyl)-2-oxo-11-(thiophen-3-yl)-6,7-dihydro-2H-benzofuro[2,3-a]quinolizine-3-carboxylic acid] | < 0.1 | > 25
16 | CC(C)(C)[C@@H]1Cc2c(oc3c(N4CCC(F)(F)C4)cccc23)-c2cc(=O)c(C(=O)O)cn21 [Example 36, (S)-6-(tert-butyl)-11-(3,3-difluoropyrrolidin-1-yl)-2-oxo-6,7-dihydro-2H-benzofuro[2,3-a]quinolizine-3-carboxylic acid] | < 0.1 | > 25
17 | CC(C)(C)[C@@H]1Cc2c(oc3c(-c4cccs4)cccc23)-c2cc(=O)c(C(=O)O)cn21 [Example 37, (S)-6-(tert-butyl)-2-oxo-11-(thiophen-2-yl)-6,7-dihydro-2H-benzofuro[2,3-a]quinolizine-3-carboxylic acid] | < 0.1 | > 25
18 | CC(C)(C)[C@@H]1Cc2c(oc3c(-c4cnsc4)cccc23)-c2cc(=O)c(C(=O)O)cn21 [Example 38, (S)-6-(tert-butyl)-11-(isothiazol-4-yl)-2-oxo-6,7-dihydro-2H-benzofuro[2,3-a]quinolizine-3-carboxylic acid] | < 0.1 | 10 to 25
19 | CC(C)(C)[C@@H]1Cc2c(oc3c(-c4cscn4)cccc23)-c2cc(=O)c(C(=O)O)cn21 [Example 39, (S)-6-(tert-butyl)-2-oxo-11-(thiazol-4-yl)-6,7-dihydro-2H-benzofuro[2,3-a]quinolizine-3-carboxylic acid] | < 0.1 | 10 to 25
20 | CC(C)(C)[C@@H]1Cc2c(oc3c(-c4nccs4)cccc23)-c2cc(=O)c(C(=O)O)cn21 [Example 41, (S)-6-(tert-butyl)-2-oxo-11-(thiazol-2-yl)-6,7-dihydro-2H-benzofuro[2,3-a]quinolizine-3-carboxylic acid] | < 0.1 | 10 to 25
21 | CC(C)(C)[C@@H]1Cc2c(oc3c(-n4cccn4)cccc23)-c2cc(=O)c(C(=O)O)cn21 [Example 42, (S)-6-(tert-butyl)-2-oxo-11-(1H-pyrazol-1-yl)-6,7-dihydro-2H-benzofuro[2,3-a]quinolizine-3-carboxylic acid] | < 0.1 | > 25
22 | CC(C)(C)[C@@H]1Cc2c(oc3c(C4CC4)cccc23)-c2cc(=O)c(C(=O)O)cn21 [Example 43, (S)-6-(tert-butyl)-11-cyclopropyl-2-oxo-6,7-dihydro-2H-benzofuro[2,3-a]quinolizine-3-carboxylic acid] | < 0.1 | 10 to 25
23 | COc1cccc2c3c(oc12)-c1cc(=O)c(C(=O)O)cn1[C@H](C(C)(C)C)C3 [Example 45, (S)-6-(tert-butyl)-11-methoxy-2-oxo-6,7-dihydro-2H-benzofuro[2,3-a]quinolizine-3-carboxylic acid] | < 0.1 | > 25
24 | CC(C)(C)[C@@H]1Cc2c(oc3c(OC4COC4)cccc23)-c2cc(=O)c(C(=O)O)cn21 [Example 46, (S)-6-(tert-butyl)-11-(oxetan-3-yloxy)-2-oxo-6,7-dihydro-2H-benzofuro[2,3-a]quinolizine-3-carboxylic acid] | < 0.1 | > 25
25 | CC(C)(C)[C@@H]1Cc2c(oc3c(OC4CC4)cccc23)-c2cc(=O)c(C(=O)O)cn21 [Example 47, (S)-6-(tert-butyl)-11-cyclopropoxy-2-oxo-6,7-dihydro-2H-benzofuro[2,3-a]quinolizine-3-carboxylic acid] | < 0.1 | 10 to 25
26 | CC(C)(C)[C@@H]1Cc2c(oc3c(-c4ccoc4)cccc23)-c2c(F)c(=O)c(C(=O)O)cn21 [Example 48, (S)-6-(tert-butyl)-1-fluoro-11-(furan-3-yl)-2-oxo-6,7-dihydro-2H-benzofuro[2,3-a]quinolizine-3-carboxylic acid] | < 0.1 | > 25
27 | CC(C)(C)[C@@H]1Cc2c(oc3c(-c4ccco4)cccc23)-c2c(F)c(=O)c(C(=O)O)cn21 [Example 49, (S)-6-(tert-butyl)-1-fluoro-11-(furan-2-yl)-2-oxo-6,7-dihydro-2H-benzofuro[2,3-a]quinolizine-3-carboxylic acid] | < 0.1 | > 25
28 | CC(C)(C)[C@@H]1Cc2c(oc3c(-c4cn[nH]c4)cccc23)-c2c(F)c(=O)c(C(=O)O)cn21 [Example 50, (S)-6-(tert-butyl)-1-fluoro-2-oxo-11-(1H-pyrazol-4-yl)-6,7-dihydro-2H-benzofuro[2,3-a]quinolizine-3-carboxylic acid] | < 0.1 | > 25
